From publication PMC11238290, “Anti-Staphy Peptides Rationally Designed from Cry10Aa Bacterial Protein” (ACS Omega, 2024)
Where a SMILES comes first, the peptide text is derived from it.

What was measured:
[1] = Solubility observed in the aqueous EPR treatment solution; format: physicochemical; details: 100 μg of peptide in 50 μL of PBS (EPR treatment); observation
Text: The EPR spectra (Figure 8A) indicate that the spin probe was structured in very rigid membranes, presenting 2A∥ values of ∼62 to ∼63 G, much higher than those found for the Leishmania parasite (∼54 G).[73]−[76] […] Pronounced increases in lipid fluidity generally create disorder in the lipid chains packaging, especially at lipid–protein interfaces, where they increase the likelihood of pore formation that could lead to electrolyte leakage and permeation of small molecules.[77]
Peptides' immediate effects on bacteria’s outermost membrane fluidity were analyzed by EPR spectroscopy. The bacteria in culture (1 × 10^9 CFU) were centrifuged and resuspended in 50 μL of PBS containing 100 μg of peptide. After 20 min of incubation, the sample was spin-labeled for the EPR experiment. To incorporate the spin label into the bacterial membranes, a 5 mg·mL^–1 ethanolic solution containing the spin label 5-doxyl stearic acid (5-DSA, Sigma-Aldrich, St. Louis, MO, USA) was added to each sample. Immediately after spin labeling, the sample was transferred to a 1 mm i.d. capillary tube, which was flame-sealed on one side. The capillary was centrifuged at 25,000 × g for 5 min, and the cell pellet of approximately 2 mm was placed in the center of the resonance cavity. […]

[2] = test system: serum proteases; experiment: Peptide stability in human serum by RP-HPLC; format: in vitro ADME; details: human serum (male AB plasma, Sigma-Aldrich), serum:peptide 5:1 v/v, peptide 256 μM, 37 °C, RP-HPLC Venusil ASB C18, PDA 216 nm, mean ± SD of three replicates; for remaining at 2 h, 256 μM: read-out: relative peak area (%), peptide remaining in human serum, 2 h; for remaining at 4 h, 256 μM: read-out: relative peak area (%), peptide remaining in human serum, 4 h; for remaining at 6 h, 256 μM: read-out: relative peak area (%), peptide remaining in human serum, 6 h; for remaining at 12 h, 256 μM: read-out: relative peak area (%), peptide remaining in human serum, 12 h
Description: (§1) The stability of peptides AMPCry10Aa, AMPCry10Aa_1, and AMPCry10Aa_5, against serum proteases was evaluated as previously described.[86],[87] Aliquots of filtered human serum from male AB plasma from Sigma-Aldrich were mixed with each peptide to a final concentration of 256 μM in a 5:1 v/v ratio. Each aliquot was then incubated at 37 °C, and 200 μL was collected for analysis of peptide degradation at 0, 2, 4, 6, 12, and 24 h. The samples were analyzed by reversed-phase high-performance liquid chromatography (RP-HPLC) with a Shimadzu LC system (Kyoto, Japan) using LC Solution software. A gradient method and a Venusil ASB C18 column (250 mm × 4.6 mm, 5 μm, Bonna-Agela Technologies) with an injection volume of 15 μL were used. A segmented gradient was applied with a constant flow rate of 1.0 mL min^–1 and PDA detection at 216 nm using water and acetonitrile eluents as the mobile phase. The peptide amount was quantified by subtracting the relative area of each analyzed time peak from the initial control peak area. All assays were performed in triplicate.

[3] = Peptide stability in human serum by RP-HPLC; format: in vitro ADME; details: human serum (male AB plasma, Sigma-Aldrich), serum:peptide 5:1 v/v, peptide 256 μM, 37 °C, RP-HPLC Venusil ASB C18, PDA 216 nm; for relative peak area (%), peptide remaining in human serum, 6 h: 360 min; for peptide remaining in human serum, 24 h: triplicate
Description: as §1

CC[C@H](C)[C@H](N)C(=O)N[C@H](C(=O)N[C@@H](CC(N)=O)C(=O)N[C@H](C(=O)N[C@@H](CC(C)C)C(=O)N[C@H](C(=O)N[C@@H](CO)C(=O)N[C@H](C(=O)N[C@H](C(=O)N[C@H](C(=O)N1CCC[C@H]1C(=O)N[C@H](C(=O)N[C@@H](CCCCN)C(=O)N[C@@H](CC(N)=O)C(=O)N[C@@H](CCC(N)=O)C(=O)N[C@@H](CC(C)C)C(=O)N[C@@H](CC(=O)O)C(=O)N[C@@H](CCCCN)C(=O)N[C@@H](Cc1ccc(O)cc1)C(=O)N[C@@H](CCC(N)=O)C(N)=O)[C@@H](C)CC)[C@@H](C)O)C(C)C)[C@@H](C)CC)[C@@H](C)O)C(C)C)[C@@H](C)CC [AMPCry10Aa] (H-IINVLTSIVTPIKNQLDKYQ-NH2)
solubility in the aqueous treatment solution [1]: did not dissolve | remaining at 2 h, 256 μM [2]: 39.6 ± 2.44% | remaining at 4 h, 256 μM [2]: 18.6 ± 2.76% | remaining at 6 h, 256 μM [2]: ~0% | relative peak area (%), peptide remaining in human serum, 0 h ([3]; mean ± SD of three replicates): 92.2 ± 3.23% | relative peak area (%), peptide remaining in human serum, 2 h ([3]; 2 h, mean ± SD of three replicates): about 40% | relative peak area (%), peptide remaining in human serum, 12 h ([3]; mean ± SD of three replicates): no longer detectable

CC[C@H](C)[C@H](NC(=O)[C@H](C)NC(=O)[C@@H](NC(=O)[C@@H](NC(=O)[C@@H](NC(=O)[C@@H](NC(=O)[C@@H](NC(=O)[C@H](CCCCN)NC(=O)[C@H](CC(C)C)NC(=O)[C@H](CC(N)=O)NC(=O)[C@H](CC(=O)O)NC(=O)[C@@H](N)CCCCN)[C@@H](C)O)[C@@H](C)CC)[C@@H](C)CC)C(C)C)[C@@H](C)O)C(=O)N[C@@H](CCCCN)C(=O)N[C@@H](CC(N)=O)C(=O)N[C@H](C(=O)N[C@@H](CC(C)C)C(=O)N[C@@H](CC(=O)O)C(=O)N[C@@H](CCCCN)C(=O)N[C@@H](Cc1ccc(O)cc1)C(=O)N[C@@H](CCC(N)=O)C(N)=O)[C@@H](C)CC [AMPCry10Aa_1] (H-KDNLKTIIVTAIKNILDKYQ-NH2)
remaining at 2 h, 256 μM [2]: 81.8 ± 1.54% | remaining at 4 h, 256 μM [2]: 74.7 ± 1.98% | remaining at 6 h, 256 μM [2]: 60% | remaining at 12 h, 256 μM [2]: 4.37 ± 1.32% | relative peak area (%), peptide remaining in human serum, 0 h ([3]; mean ± SD of three replicates): 96.93 ± 0.51% | relative peak area (%), peptide remaining in human serum, 6 h ([3]; mean ± SD of three replicates): 58.96 ± 2.33% | relative peak area (%), peptide remaining in human serum, 12 h ([3]; mean ± SD of three replicates): trace | peptide remaining in human serum, 24 h [3]: no longer detectable

CC[C@H](C)[C@H](N)C(=O)N[C@H](C(=O)N[C@@H](CC(N)=O)C(=O)N[C@H](C(=O)N[C@@H](CCCCN)C(=O)N[C@H](C(=O)N[C@@H](CO)C(=O)N[C@@H](CC(C)C)C(=O)N[C@@H](CCCCN)C(=O)N[C@H](C(=O)N[C@H](C(=O)N[C@H](C(=O)N[C@@H](CCCCN)C(=O)N[C@@H](CC(N)=O)C(=O)N[C@@H](C)C(=O)N[C@@H](CC(C)C)C(=O)N[C@@H](CC(=O)O)C(=O)N[C@@H](CCCCN)C(=O)N[C@H](C(=O)N[C@@H](CCC(N)=O)C(N)=O)[C@@H](C)CC)[C@@H](C)CC)[C@@H](C)CC)[C@@H](C)O)[C@@H](C)O)C(C)C)[C@@H](C)CC [AMPCry10Aa_5] (H-IINVKTSLKTIIKNALDKIQ-NH2)
remaining at 2 h, 256 μM [2]: 81.6 ± 2.21% | remaining at 4 h, 256 μM [2]: 68.8 ± 0.99% | remaining at 6 h, 256 μM [2]: 40% | remaining at 12 h, 256 μM [2]: 8.11 ± 3.65% | relative peak area (%), peptide remaining in human serum, 0 h ([3]; mean ± SD of three replicates): 92.83 ± 3.33% | relative peak area (%), peptide remaining in human serum, 6 h ([3]; mean ± SD of three replicates): 36.73 ± 1.84% | relative peak area (%), peptide remaining in human serum, 12 h ([3]; mean ± SD of three replicates): trace | peptide remaining in human serum, 24 h [3]: no longer detectable
